Consider 2 molecules from patent US8466311B2, “Neuroprotective compositions and methods” (Sanford-Burnham Medical Research Institute, priority 2006, dated 2013).

One data set concerns GSH. As to the kind of experiment: Brain GSH and GSSG after feeding CA. Format: in vivo, mouse. To be noted: food containing 0.03% CA for a week. The method, then:
Mice were fed 0.03% CA for 1 week, and their brains were then removed, lysed and subjected to GSH and GSSG measurement.
Measurement of brain GSH. After exsanguination via heart puncture under ether anesthesia, mouse brains were removed and quickly frozen in liquid nitrogen. We ruled out GSH as a contaminant from blood vessels by HPLC analysis of blood components in the brain lysates.
The frozen brains were lysed with 1% sulfosalicylic acid on ice for 10 min, and total glutathione (reduced and oxidized) was determined as described previously (Sagara et al., 2002). Briefly, after the lysates had been incubated on ice for 10 min, the supernatants were collected after centrifugation in Eppendorf microfuge tubes. Upon neutralization of each supernatant with triethanolamine, the total glutathione (reduced and oxidized) concentration was determined. Pure GSH was used to obtain the standard curve. For the determination of oxidized GSH, the method of Griffith using 2-vinylpyridine was used to deplete the reduced GSH.
Mice were allowed free access to food containing 0.03% CA for a week. Their brains were then removed, and extracts were prepared and measured for GSH and GSSG levels. Under these conditions, CA increased both total GSH+GSSG and the ratio of GSH/GSSG (FIG. 6). […]

The next data set has as its system neural cells. As to the kind of experiment: Neuroprotection and toxicity of CA in vitro (summary statements). Format: cell-based.
Data set [1] has as its system phase 2 genes (GCL-L, GCL-H, HO-1, NQO1). As to the kind of experiment: Phase 2 gene induction in PC12h cells (RT-PCR). It counts as cell-based. To be noted: 10 μM CA, 6-24 h. How it is done:
RT-PCR. In order to examine phase 2 gene induction by CA in PC12h cells and brain lysates, RT-PCR of total RNA from cortical cultures was performed using the following primer pairs (Hosoya et al., J. Bioi. Chern. 29:27244-27250, 2005; Kobayashi et al., Mol. Cell. Biol. 26:221-229, 2006): CypA (89 bp), 5′-ACAGGTCCTGGCATCTTGTC-3′ (SEQ ID NO: 18)(sense) and 5′-[…] -3′ (SEQ ID NO: 19)(antisense); H0-1 (284 bp), 5′-CAGTCGCCTCCAGAGTTTCC -3′ (SEQ ID NO: 20)(sense) and 5′- TACAAGGAGGCCATCACCAGC-3′ (SEQ ID NO: 21)(antisense); GCL-M (280 bp), 5′- CTGCTAAACTGTTCATTGTAGG-3′ (SEQ ID NO: 22)(sense) and 5′- CTA TTG GGT TIT ACC TGT G-3′ (SEQ ID NO: 23)(antisense); GCL-C (213 bp), 5′- GTC TIC AGG TGA ACA TIC CAA GC-3′ (SEQ ID NO: 24)(sense) and 5′- TGTTCTTCAGGGGCTCCAGTC-3′ (SEQ 10 NO: 25)(antisense); and NQO1 (212 bp), 5′- GTG TAC AGC ATI GGC CAC AC-3′ (SEQ 10 NO: 26)(sense) and 5′AAATGATGGCCCACAGAAAG-3′ (SEQ ID NO: 27)(antisense).
Phase 2 enzymes represent an important effector activated by electrophilic-induction of the Keap1/Nrf2 pathway. In order to detect induction of the phase 2 enzymes γ-GCL light chain (GCL-L), γ-GCL heavy chain (GCL-H), HO-1, and NQO1, we performed RT-PCR using mRNA of PC12h cells pretreated with 10 μM CA. The cyclophilin A (CYPA) gene was used as an internal positive control.

A further data set relates to ARE core element. As to the kind of experiment: ARE core element luciferase reporter (pAREluc) in HT22 cells. Format: cell-based. How it is done: Cell cultures, transfection, and glutathione (GSH) measurement. […] Transfection was performed with Lipofectamine 2000 (Invitrogen). In the reporter gene assays, firefly luciferase activity in cell lysates was measured with a luminometer (Promega). Total GSH (reduced and oxidized) was determined as described (Lee et al., Biochem. Biophys. Res. Commun. 280:286-292, 2001).
The E1 and E2 enhancer sites in the H0-1 promoter each contain an ARE. […] Biol. 24:36-45, 2004; Gong et al., Antioxid. Redox Signal. 4:249-257, 2002). Because NEPP compounds have an electrophilic carbon at position #11 and can bind cysteine residues of cellular proteins, we studied this pathway of ARE activation. To provide direct evidence that NEPP11 could activate the H0-1 enhancer through an ARE, we studied transcriptional activation of a wild-type ARE core element (pAREluc) and a mutated form (pGC-AREIuc) (Lee et al., Biochem, Biophys. Res. Commun. 280:286-292, 2001). cDNA constructs represented wild-type
(Kraft et al., J. Neurosci. 24:1101-1112, 2004).

The subject of the next data set is HO-1 protein. As to the kind of experiment: Induction of HO-1 protein in primary cortical cultures. Format: cell-based, rat. How it is done: Immunoprecipitation, western blots, and immunofluorescence. These assays were performed as described (Gu et al., Science 297:1186-1190, 2002) by using the following antibodies: anti-HO-1 (SPA895, 1:1000, Santa Cruz Biotechnology), anti-Keap1 (1:100, Santa Cruz Biotechnology), or anti-actin (1:5,000, Oncogene Research Products, San Diego).
We reasoned that if, unlike other electrophiles (Kraft et al., J. Neurosci. 24:1101-1112, 2004), NEPPs accumulate predominantly in neurons, then HO-1 might be induced preferentially in this cell type. To check this possibility, we performed immunofluorescence studies with anti-HO-1 antibody after exposure to a potent NEPP compound. Cortical cultures (E17 and DIV14-21) treated with vehicle or NEPP11 (0.7 μM) were stained with anti-MAP-2 and anti-HO-1 and with Hoechst dye. In control cultures, non-neuronal cells expressed relatively more HO-1 at baseline than did neurons. […] To examine induction of HO-1 protein after exposure to NEPP, lysates (10 μg per lane) of primary cortical cultures treated with vehicle or NEPP11 for 24 h were probed with anti-HO-1 or anti-β-actin in immunoblots. […] The fold induction of HO-1 by NEPP11 was 2.2±0.25 (for 0.5 μM NEPP11) and 3.5±0.25 (for 1.0 μM NEPP11 as assessed by densitometry.
Cell Cultures, Transfection, and Glutathione (GSH) Measurement.

Molecules are shown by their SMILES.

As for `CC(C)c1cc2c(c(O)c1O)[C@@]1(C(=O)O)CCCC(C)(C)[C@@H]1CC2` [CA, carnosic acid], in the data set with GSH, the “ratio of GSH/GSSG in brain” value is given as “increased” and the “total GSH+GSSG in brain” value is recorded as “increased”. Also, the “toxicity in vitro relative to NEPP11” value with neural cells is on record as “less toxic than NEPP11”. For the same molecule, in the data set on neural cells (100 μM CA), the “toxicity to neural cells” value is “not toxic”. The neuroprotective concentration with neural cells (as little as) was 1-3. For the same molecule, in data set [1], the “induction of phase 2 genes” value is “All of the phase 2 genes were induced”.

For `COC(=O)CCCCC/C=C1/C(=O)C=C[C@H]1CCCCCCc1ccc(C)cc1` [NEPP11], in the data set with ARE core element, the “mutant ARE (pGC-AREluc) transcriptional activity” value is “unaffected”. The “wild-type ARE (pAREluc) transcriptional activity” value with ARE core element (dose-dependent) is listed as “up to seven-fold”. Moreover, the “fold induction of HO-1 (densitometry)” value in the data set with HO-1 protein (0.5 μM NEPP11, 24 h) was 2.2±0.25 fold; in the data set on HO-1 protein (1.0 μM NEPP11, 24 h), 3.5±0.25 fold. For the same molecule, in the data set with HO-1 protein (NEPP11 0.7 μM, E17 DIV14-21), the HO-1 immunofluorescence result is “increased mainly in neurons”.
